US9603833B2, “Benzene or thiophene derivative and use thereof as VAP-1 inhibitor” (R-Tech Ueno, Ltd., priority 2008, dated 2017)
Structures can show the parent of a compound that is named as a salt.

What was measured:
Type in all cases: biochemical
[1] = biological target: human MAO-B (Homo sapiens (Human), UniProt P27338); assay: Inhibitory effect on human MAO-B, MAO Detection Kit (Fluoro MAO); conditions: gene recombinant human MAO-B; fluorescence at 590 nm; 37° C., 2 hrs; read-out: MAO-B inhibition IC50
Sequence of human MAO-B (P27338 whole entry): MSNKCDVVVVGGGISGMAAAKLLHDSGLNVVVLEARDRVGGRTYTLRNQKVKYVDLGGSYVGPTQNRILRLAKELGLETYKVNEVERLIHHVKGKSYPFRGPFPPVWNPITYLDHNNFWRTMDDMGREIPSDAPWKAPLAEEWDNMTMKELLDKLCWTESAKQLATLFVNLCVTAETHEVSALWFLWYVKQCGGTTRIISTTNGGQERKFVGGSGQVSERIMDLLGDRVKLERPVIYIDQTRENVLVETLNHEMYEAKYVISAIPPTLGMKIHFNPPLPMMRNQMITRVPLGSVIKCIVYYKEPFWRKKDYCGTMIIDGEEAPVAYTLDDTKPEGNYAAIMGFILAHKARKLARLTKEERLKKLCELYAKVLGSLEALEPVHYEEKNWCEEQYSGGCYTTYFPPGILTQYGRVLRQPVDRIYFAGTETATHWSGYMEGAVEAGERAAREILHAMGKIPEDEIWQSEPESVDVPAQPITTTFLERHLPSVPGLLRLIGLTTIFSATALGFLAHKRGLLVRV
Method: (§1) The compounds of the present invention obtained in the Production Examples were examined for the inhibitory effect on human monoamineoxydase enzymes (MAO-A and MAO-B) by the following method.
(§2) Gene recombinant human MAO-A and MAO-B enzymes were purchased from Sigma Ltd. The human MAO-A and MAO-B activities were measured using MAO Detection Kit (Fluoro MAO, Cell Technology Inc.). Assay was performed in a 96-well plate. 1× Reaction buffer (40 μl) was added to each well, and 50 μl (5 mg/ml) of MAO-A or MAO-B was added. Then, test compound solutions (final concentration 1×10^−4-1×10^−10 mol/l) (10 μl) were added and the mixtures were incubated at 37° C. for 20 mins. Reaction cocktail (100 μl) was added, and the mixtures (final volume 200 μl) were incubated at 37° C. for 2 hrs. Thereafter, the fluorescence at 590 nm was detected with an excitation wavelength of 570 nm using a multispectro microplate reader (Varioskan, Thermo Fisher Scientific K.K.).

[2] = biological target: human MAO-A (Homo sapiens (Human), UniProt P21397); assay: Inhibitory effect on human MAO-A, MAO Detection Kit (Fluoro MAO); conditions: gene recombinant human MAO-A; fluorescence at 590 nm; 37° C., 2 hrs; read-out: MAO-A inhibition IC50
Sequence of human MAO-A (P21397 whole entry): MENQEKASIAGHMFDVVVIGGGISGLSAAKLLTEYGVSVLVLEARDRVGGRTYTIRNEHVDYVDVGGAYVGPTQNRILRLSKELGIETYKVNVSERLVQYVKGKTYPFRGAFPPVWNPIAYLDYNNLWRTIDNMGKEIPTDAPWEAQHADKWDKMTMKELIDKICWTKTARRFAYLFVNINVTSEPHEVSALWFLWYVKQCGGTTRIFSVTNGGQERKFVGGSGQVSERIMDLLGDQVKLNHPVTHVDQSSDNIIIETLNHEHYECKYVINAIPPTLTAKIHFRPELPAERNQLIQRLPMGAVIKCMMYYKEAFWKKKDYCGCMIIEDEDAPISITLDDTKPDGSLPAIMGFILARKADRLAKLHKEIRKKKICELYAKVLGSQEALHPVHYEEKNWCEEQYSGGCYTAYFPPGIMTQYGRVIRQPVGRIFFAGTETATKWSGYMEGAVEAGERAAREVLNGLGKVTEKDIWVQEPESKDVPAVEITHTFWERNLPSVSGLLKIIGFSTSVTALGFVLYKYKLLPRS
Method: as §1, §2

[3] = biological target: human VAP-1 enzyme (SSAO) (Homo sapiens (Human), UniProt Q16853); assay: Inhibitory effect on human VAP-1 enzyme (SSAO), radiochemical-enzyme assay using 14C-benzylamine; conditions: human VAP-1 expressed in a cell, cell extract; 14C-benzylamine 1×10^−5 mol/L; 37° C., 2 hours
Sequence of human VAP-1 enzyme (SSAO) (Q16853 whole entry): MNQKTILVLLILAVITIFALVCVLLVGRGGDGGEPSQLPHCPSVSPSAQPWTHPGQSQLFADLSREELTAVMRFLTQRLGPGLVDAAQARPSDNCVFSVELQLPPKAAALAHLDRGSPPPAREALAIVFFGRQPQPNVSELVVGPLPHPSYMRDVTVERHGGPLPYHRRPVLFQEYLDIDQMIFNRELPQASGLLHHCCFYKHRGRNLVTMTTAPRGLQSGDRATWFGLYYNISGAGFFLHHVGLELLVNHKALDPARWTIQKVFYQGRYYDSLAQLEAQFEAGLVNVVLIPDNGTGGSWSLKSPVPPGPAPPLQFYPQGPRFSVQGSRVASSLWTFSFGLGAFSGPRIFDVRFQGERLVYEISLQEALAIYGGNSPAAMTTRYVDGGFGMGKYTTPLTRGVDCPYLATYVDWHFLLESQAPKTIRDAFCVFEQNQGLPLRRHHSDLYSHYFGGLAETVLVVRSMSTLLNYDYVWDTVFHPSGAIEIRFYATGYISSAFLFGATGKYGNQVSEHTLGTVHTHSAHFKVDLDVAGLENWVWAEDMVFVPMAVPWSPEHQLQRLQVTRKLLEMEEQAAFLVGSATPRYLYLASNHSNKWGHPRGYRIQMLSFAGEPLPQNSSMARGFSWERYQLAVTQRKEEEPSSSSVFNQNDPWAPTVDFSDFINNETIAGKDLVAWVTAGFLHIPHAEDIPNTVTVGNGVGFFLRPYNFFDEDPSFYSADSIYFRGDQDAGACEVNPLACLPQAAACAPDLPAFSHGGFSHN
Method: (§3) The compounds of the present invention obtained in Production Examples were examined for the inhibitory effect on human and rat VAP-1 enzyme (SSAO) by the following method.
(§4) The VAP-1 enzyme (SSAO) activity in both human and rat was measured by a radiochemical-enzyme assay using ^14C-benzylamine as an artificial substrate. Human or rat VAP-1 was cloned from the cDNA library and expressed in a cell. The cell extract was preincubated with a test compound solution (final concentration 1×10^−7-1×10^−10 mol/L) at room temperature for 20 minutes. Then, ^14C-benzylamine (final concentration 1×10^−5 mol/L) was added, and the mixture was incubated at a final volume of 200 μL at 37° C. for 2 hours. The enzyme reaction was stopped by addition of 2 mol/L (200 μL) citric acid. The oxidation product was extracted with 1 mL toluene/ethyl acetate (1:1), and the radioactivity thereof was measured by a liquid scintillation counter.

[4] = biological target: rat VAP-1 enzyme (SSAO) (Rattus norvegicus (Rat), UniProt O08590); assay: Inhibitory effect on rat VAP-1 enzyme (SSAO), radiochemical-enzyme assay using 14C-benzylamine; conditions: rat VAP-1 expressed in a cell, cell extract; 14C-benzylamine 1×10^−5 mol/L; 37° C., 2 hours
Sequence of rat VAP-1 enzyme (SSAO) (O08590 whole entry): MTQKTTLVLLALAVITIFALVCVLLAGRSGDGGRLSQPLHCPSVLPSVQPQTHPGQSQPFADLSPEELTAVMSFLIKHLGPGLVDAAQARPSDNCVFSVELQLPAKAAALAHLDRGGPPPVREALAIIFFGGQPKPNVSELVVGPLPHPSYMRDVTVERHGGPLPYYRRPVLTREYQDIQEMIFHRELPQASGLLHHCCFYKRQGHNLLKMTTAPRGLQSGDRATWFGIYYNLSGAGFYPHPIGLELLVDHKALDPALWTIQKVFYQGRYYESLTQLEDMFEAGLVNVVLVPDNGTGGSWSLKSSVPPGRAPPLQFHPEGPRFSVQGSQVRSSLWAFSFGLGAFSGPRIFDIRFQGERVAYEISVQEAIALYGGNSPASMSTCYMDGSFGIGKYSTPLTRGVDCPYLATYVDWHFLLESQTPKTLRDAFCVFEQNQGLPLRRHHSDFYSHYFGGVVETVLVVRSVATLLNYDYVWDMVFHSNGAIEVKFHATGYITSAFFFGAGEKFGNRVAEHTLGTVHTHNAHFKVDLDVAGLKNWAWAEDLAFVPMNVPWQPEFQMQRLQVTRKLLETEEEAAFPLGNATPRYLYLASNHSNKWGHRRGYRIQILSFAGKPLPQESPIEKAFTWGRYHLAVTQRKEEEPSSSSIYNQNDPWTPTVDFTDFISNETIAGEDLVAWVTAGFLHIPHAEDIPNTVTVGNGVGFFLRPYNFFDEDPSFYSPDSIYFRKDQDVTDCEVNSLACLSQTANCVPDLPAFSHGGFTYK
Method: as §3, §4

| SMILES | IC50 [1] | IC50 [2] | IC50 [3] | IC50 [4] |
| --- | --- | --- | --- | --- |
| CN1CCN(c2ccc(CCc3ccc(CC(=O)NN)cc3)cc2)CC1 [Production Example 35, 2-(4-{2-[4-(4-methylpiperazin-1-yl)phenyl]ethyl}phenyl)acetohydrazide trihydrochloride] | > 100000 nM | > 100000 nM | – | – |
| NNC(=O)Cc1ccc(CCc2cccc(N3CCNCC3)n2)cc1 [Production Example 51, 2-{4-[2-(6-piperazin-1-ylpyridin-2-yl)ethyl]phenyl}acetohydrazide tetrahydrochloride] | > 100000 nM | > 100000 nM | 9.8 nM | 29.4 nM |
| NNC(=O)Cc1ccc(CCc2ccnc(N3CCNCC3)c2)cc1 [Production Example 105, 2-{4-[2-(2-piperazin-1-ylpyridin-4-yl)ethyl]phenyl}acetohydrazide tetrahydrochloride] | > 100000 nM | > 100000 nM | 7.3 nM | 7.2 nM |

The next lines start with the values.

| IC50 [1] | IC50 [2] | IC50 [3] | IC50 [4] | SMILES |
| --- | --- | --- | --- | --- |
| > 100000 nM | > 100000 nM | 3.2 nM | 1.4 nM | CC(=O)N1CCN(c2ccc(CCc3ccc(CC(=O)NN)cc3)nc2)CC1 [Production Example 87, 2-(4-{2-[5-(4-acetylpiperazin-1-yl)pyridin-2-yl]ethyl}phenyl)acetohydrazide trihydrochloride] |
| – | – | 2.2 nM | 1.6 nM | CC(=O)N1CCN(c2ccc(CCc3csc(CCC(=O)NN)c3)nc2)CC1 [Production Example 121, 3-(4-{2-[5-(4-acetylpiperazin-1-yl)pyridin-2-yl]ethyl}thiophen-2-yl)propanehydrazide trihydrochloride] |
| – | – | 6.6 nM | 8 nM | CC(=O)N1CCN(c2ccc(CCc3ccc(CCOC(=O)NN)cc3)nc2)CC1 [Production Example 122, 2-(4-{2-[5-(4-acetylpiperazin-1-yl)pyridin-2-yl]ethyl}phenyl)ethyl hydrazinecarboxylate trihydrochloride] |
| – | – | 4.7 nM | 5.5 nM | CC(=O)N1CCN(c2ccc(CCc3csc(CCCOC(=O)NN)c3)nc2)CC1 [Production Example 124, 3-(4-{2-[5-(4-acetylpiperazin-1-yl)pyridin-2-yl]ethyl}thiophen-2-yl)propylhydrazinecarboxylate] |
